According to patent US7897776B2, “Sulfonamide containing compounds for treatment of inflammatory disorders” (Salutria Pharmaceuticals LLC, priority 2007, dated 2011):
Counter-ions that a name gives are not always drawn.

Assays:
[1] = system: Methacholine-induced airway reactivity; experiment: Mouse model of asthma: methacholine-induced airway reactivity (Penh) in ovalbumin-sensitized and challenged mice; assay type: in vivo; details: % inhibition of the PenH vs McH dose AUC compared with vehicle control; for inhibition in vivo at 50 mg/kg: Mus musculus, po, 768 h, 50 mg/kg p.o., dosed days 26-32, measured day 32, ovalbumin-sensitized male Balb/CJ mice, read-out: Reduction of Penh AUC at 50 mg/kg p.o.
Procedure: Male 5-6 week old Balb/CJ mice were obtained from Jackson Laboratories (Bar Harbor, Me.). All experimental animals were used in accordance to Institutional Animal Care and Use Committee of AtheroGenics, Inc. Mice were sensitized by administering an intraperitoneal injection of 20 μg of ovalbumin (Calbiochem, La Jolla, Calif.) adsorbed in 2 mg of alum (Imject Alum; Pierce, Rockford, Ill.) on day 0 and 14. A group of mice received saline and served as negative control animals. The mice were challenged by aerosol exposure to ovalbumin (1% [wt/vol]) for 25 minutes on 3 consecutive days (days 28, 29, and 30) in a plexiglass exposure chamber coupled to an Aeroneb nebulizer (Buxco Electronics, Wilmington, N.C.). Experimental compounds were dissolved in Glycofurol/PEG 300/Tween (35%/55%/10%) (Sigma-Aldrich; Milwaukee, Wis.). Animals were dosed orally with either test compound or vehicle (6 ml/kg dosing volume) on days 26-32 of study. Compound or vehicle was administered 2 hour before the aerosol challenge on days 28, 29, and 30 and 1 hour before airway reactivity measurement on day 32.
Methacholine-induced airway reactivity was assessed on day 32. Methacholine was administered in increasing concentrations ([…], 1.5, 3, 6, 12, 25, and 50 mg/ml) to unrestrained mice. Increases in airway resistance to Methacholine were determined as enhanced pause, (Penh) values, during and after the exposure (6-minute total analysis time). Mice were then humanely euthanized with an overdose of ketamine/xylazine and plasma samples collected for determination of drug levels. The data is presented as the % inhibition of the PenH vs McH dose AUC compared with the vehicle control.
Data analysis was conducting using the software package, JMP (SAS Institute Inc; Cary, N.C.). The Dunnett's multiple comparison test was used to compare treatment group means to the vehicle control group. P values of less than 0.05 were considered statistically significant. The data (Table 1) is presented as the % inhibition of the PenH vs McH dose AUC compared with the vehicle control.

| melting point [°C] | SMILES | inhibition in vivo at 50 mg/kg [1] [%] | Reduction of Penh AUC at 50 mg/kg p.o. ([1]; dosed days 26-32, measured day 32, ovalbumin-sensitized male Balb/CJ mice, 50 mg/kg) |
| --- | --- | --- | --- |
|  | Cn1c(C(=O)O)ccc1S(=O)(=O)N1CCC(CCO)(Sc2cc(C(C)(C)C)c(O)c(C(C)(C)C)c2)CC1 [Example 1, 5-[4-(3,5-Di-tert-butyl-4-hydroxy-phenylsulfanyl)-4-(2-hydroxy-ethyl)-piperidine-1-sulfonyl]-1-methyl-1H-pyrrole-2-carboxylic acid] | < 20 |  |
| 126 to 127 | Cn1c(CO)ccc1S(=O)(=O)N1CCC(CCO)(Sc2cc(C(C)(C)C)c(O)c(C(C)(C)C)c2)CC1 [Example 2, 2,6-Di-tert-butyl-4-[4-(2-hydroxy-ethyl)-1-(5-hydroxymethyl-1-methyl-1H-pyrrole-2-sulfonyl)-piperidin-4-ylsulfanyl]-phenol] | > 40 |  |
|  | Cc1[nH]c(C(=O)O)c(C)c1S(=O)(=O)N1CCC(Sc2cc(C(C)(C)C)c(O)c(C(C)(C)C)c2)CC1 [Example 3, 4-[4-(3,5-Di-tert-butyl-4-hydroxy-phenylsulfanyl)-piperidine-1-sulfonyl]-3,5-dimethyl-1H-pyrrole-2-carboxylic acid] | 20 to 40 |  |
|  | Cn1c(C(=O)O)ccc1S(=O)(=O)N1CCC(Sc2cc(C(C)(C)C)c(O)c(C(C)(C)C)c2)CC1 [Example 4, 5-[4-(3,5-Di-tert-butyl-4-hydroxy-phenylsulfanyl)-piperidine-1-sulfonyl]-1-methyl-1H-pyrrole-2-carboxylic acid] | > 40 |  |
| 64 to 65 | Cn1c(CO)ccc1S(=O)(=O)N1CCC(Sc2cc(C(C)(C)C)c(O)c(C(C)(C)C)c2)CC1 [Example 5, 2,6-Di-tert-butyl-4-[1-(5-hydroxymethyl-1-methyl-1H-pyrrole-2-sulfonyl)-piperidin-4-ylsulfanyl]-phenol] | > 40 |  |
|  | Cn1c(C(=O)O)ccc1S(=O)(=O)N1CCC(Sc2cc(C(C)(C)C)c(OCCCO)c(C(C)(C)C)c2)CC1 [Example 6, 5-{4-[3,5-Di-tert-butyl-4-(3-hydroxy-propoxy)-phenylsulfanyl]-piperidine-1-sulfonyl}-1-methyl-1H-pyrrole-2-carboxylic acid] | < 20 |  |
|  | Cn1c(C(=O)O)ccc1S(=O)(=O)N1CCC([S+]([O-])c2cc(C(C)(C)C)c(O)c(C(C)(C)C)c2)CC1 (stereo not shown) [Example 7, 5-[4-(3,5-Di-tert-butyl-4-hydroxy-benzenesulfinyl)-piperidine-1-sulfonyl]-1-methyl-1H-pyrrole-2-carboxylic acid] | 20 to 40 |  |
|  | CC(C)(C)c1cc(SC2CCN(S(=O)(=O)c3ncc(C(=O)O)[nH]3)CC2)cc(C(C)(C)C)c1O [Example 8, 2-[4-(3,5-Di-tert-butyl-4-hydroxy-phenylsulfanyl)-piperidine-1-sulfonyl]-3H-imidazole-4-carboxylic acid] | 20 to 40 |  |
| 122 to 123 | CC(C)(C)c1cc(SC2CCN(S(=O)(=O)c3ncc(CO)[nH]3)CC2)cc(C(C)(C)C)c1O [Example 9, 2,6-Di-tert-butyl-4-[1-(5-hydroxymethyl-1H-imidazole-2-sulfonyl)-piperidin-4-ylsulfanyl]-phenol] | 20 to 40 |  |
|  | CC(C)(C)c1cc(SC2CCN(S(=O)(=O)c3ncc(C(C)(C)O)[nH]3)CC2)cc(C(C)(C)C)c1O [Example 12, 2,6-Di-tert-butyl-4-{1-[5-(1-hydroxy-1-methyl-ethyl)-1H-imidazole-2-sulfonyl]-piperidin-4-ylsulfanyl}-phenol] | < 20 |  |
|  | Cn1c(C(=O)O)ccc1S(=O)(=O)N1CC[C@@H](Sc2cc(C(C)(C)C)c(O)c(C(C)(C)C)c2)C1 [Example 13, (R)-5-[3-(3,5-Di-tert-butyl-4-hydroxy-phenylsulfanyl)-pyrrolidine-1-sulfonyl]-1-methyl-1H-pyrrole-2-carboxylic acid] | < 20 |  |
|  | Cn1c(C(=O)O)ccc1S(=O)(=O)N1CC[C@H](Sc2cc(C(C)(C)C)c(O)c(C(C)(C)C)c2)C1 [Example 14, (S)-5-[3-(3,5-Di-tert-butyl-4-hydroxy-phenylsulfanyl)-pyrrolidine-1-sulfonyl]-1-methyl-1H-pyrrole-2-carboxylic acid] | < 20 |  |
| 68 to 70 | Cn1c(CO)ccc1S(=O)(=O)N1CC[C@H](Sc2cc(C(C)(C)C)c(O)c(C(C)(C)C)c2)C1 [Example 15, (S)-2,6-Di-tert-butyl-4-[1-(5-hydroxymethyl-1-methyl-1H-pyrrole-2-sulfonyl)-pyrrolidin-3-ylsulfanyl]-phenol] | < 20 |  |
|  | Cn1c(C(=O)O)ccc1S(=O)(=O)N1CCC(Sc2cc(C(C)(C)C)c(O)c(C(C)(C)C)c2)CC1 [Example 16, 5-[4-(3,5-Di-tert-butyl-4-hydroxy-phenylsulfanyl)-piperidine-1-sulfonyl]-1-methyl-1H-pyrrole-2-carboxylic acid L-arginine salt] | < 20 |  |
|  | Cn1c(C(=O)O)ccc1S(=O)(=O)N1CCC(Sc2cc(C(C)(C)C)c(O)c(C(C)(C)C)c2)CC1 [Example 18, 5-[4-(3,5-Di-tert-butyl-4-hydroxy-phenylsulfanyl)-piperidine-1-sulfonyl]-1-methyl-1H-pyrrole-2-carboxylic acid tris(hydroxymethyl)aminomethane (THAM) Salt] |  | 1 (>40% and statistically significant) |
